From patent publication US5314904A (priority 1991, dated 1994)
Converted amounts (≈) assume the structure as drawn. Like-named read-outs stand apart in the source and are kept apart here.

Tests used:
Gardnerella vaginalis = experiment: MIC in vitro, Gardnerella vaginalis (NCCLS M11-T2, agar Wilken-Chalgren); assay type: cell-based; details: for MIC: read-out: MIC Range of Concentration Value
Source text: (§1) Forty strains of Bacteroides bivius-disiens, 23 strains of Gardnerella vaginalis, 31 strains of the species Lactobacillus and 13 strains of Mobiluncus, 35 strains (from Iowa) and 25 strains (from Manitoba) of Neisseria gonorrhoeae, 25 strains of Haemophilus ducreyi and 6 strains of Chlamydia trachomatis have been analyzed.
(§2) Forty strains of Bacteroides bivius-disiens, 23 strains of Gardnerella vaginalis, 31 strains of Lactobacillus spp., 13 strains of Mobiluncus spp., 6 strains of Chlamydia trachomatis, 60 strains of Neisseria gonorrhoeae and 25 strains of Haemophilus ducreyi were obtained by culture collections supplied from: […]

[1] = cited from earlier work
Mobiluncus spp. = experiment: MIC in vitro, Mobiluncus spp. (NCCLS M11-T2, agar Wilken-Chalgren); assay type: cell-based; details: for MIC: read-out: MIC Range of Concentration Value
Source text: as §1, §2

Lactobacillus spp. = experiment: MIC in vitro, Lactobacillus spp. (NCCLS M11-T2, agar Wilken-Chalgren); assay type: cell-based; details: for MIC: read-out: MIC Range of Concentration Value
Source text: as §1, §2

[2] = test system: Bacteroides bivius-disiens; experiment: MIC in vitro, Bacteroides bivius-disiens (NCCLS M11-T2, agar Wilken-Chalgren); assay type: cell-based; details: 40 strains; for MIC: read-out: MIC Range of Concentration Value
Source text: as §1, §2

Neisseria gonorrhoeae = experiment: MIC in vitro, Neisseria gonorrhoeae (NCCLS M7-A2); assay type: cell-based
Source text: as §1
(§3) Forty strains of Bacteroides bivius-disiens, 23 strains of Gardnerella vaginalis, 31 strains of Lactobacillus spp., 13 strains of Mobiluncus spp., 6 strains of Chlamydia trachomatis, 60 strains of Neisseria gonorrhoeae and 25 strains of Haemophilus ducreyi were obtained by culture collections supplied from:
(§4) The determination of the MIC with respect to Neisseria gonorrhoeae has been carried out according to the NCCLS M7-A2 method, while the determination of th MIC with respect to Chlamydia trachomatis, Mycoplasma hominis, Ureaplasma urealyticum and Haemophilus ducrey has been carried out according to Hoban D. et al. "In vitro activity of lomefloxacin against Chlamydia trachomatis, Neisseria gonorrhoeae, Haemophilus ducreyi, Mycoplasma hominis and Ureaplasma urealyticum." Diagn. Microbiol. Infect. Dis., 12, 83S-86S (1989).

Chlamydia trachomatis = experiment: MIC in vitro, Chlamydia trachomatis (Hoban et al. method); assay type: cell-based
Source text: (§5) Forty strains of Bacteroides bivius-disiens, 23 strains of Gardnerella vaginalis, 31 strains of the species Lactobacillus and 13 strains of Mobiluncus, 35 strains (from Iowa) and 25 strains (from Manitoba) of Neisseria gonorrhoeae, 25 strains of Haemophilus ducreyi and 6 strains of Chlamydia trachomatis have been analyzed. The determination of the minimum inhibitory concentration on the strains of the four types of anaerobic bacteria has been carried out according to NCCLS M11-T2 method (National Committee for Clinical Laboratory Standards. Methods for antimicrobial testing of anaerobic bacteria--second edition: Tentative Standard. NCCLS M11-T2, Villanova, Pa. NCCLS; 1989) on agar Wilken-Chalgren (Difco Laboratories, Detroit, Mich.) to which blood has been added.
as §3, §4

Mycoplasma hominis = experiment: MIC in vitro, Mycoplasma hominis (Hoban et al. method); assay type: cell-based; details: Metamycoplasma hominis
Source text: as §4

Haemophilus ducreyi = experiment: MIC in vitro, Haemophilus ducreyi (Hoban et al. method); assay type: cell-based
Source text: as §5
The strains of Haemophilus ducreyi have been grown on chocolate agar for 24 hours at 35° C. in an atmosphere of carbon dioxide. After each material has been isolated, it is applied on chocolate agar containing appropriate dilution of antibiotic (Hoban D. et al. "In vitro activity of lomefloxacin against Chlamydia trachomatis, Neisseria gonorrhoeae, Haemophilus ducreyi, Mycoplasma hominis and Ureaplasma urealyticum". Diagn. Microbiol. Infect. Dis. 12, 83S-86S, 1989). The plates are incubated in an atmosphere containing carbon dioxide with increasing moisture at 35° C. for 48 hours.
as §2

Ureaplasma urealyticum = experiment: MIC in vitro, Ureaplasma urealyticum (Hoban et al. method); assay type: cell-based
Source text: as §4

SMILES	MIC50 (Gardnerella vaginalis; 23 strains)	MIC90 (Gardnerella vaginalis; 23 strains, read-out: MIC 90%)	MIC (Gardnerella vaginalis; 23 strains)	MIC50 (Mobiluncus spp.; 13 strains)	MIC90 (Mobiluncus spp.; 13 strains, read-out: MIC 90%)	MIC (Mobiluncus spp.; 13 strains)	MIC50 (Lactobacillus spp.; 31 strains)	MIC90 (Lactobacillus spp.; 31 strains, read-out: MIC 90%)	MIC (Lactobacillus spp.; 31 strains)	MIC50 [2]	MIC90 [2]	MIC [2]	MIC90 (Gardnerella vaginalis)	MIC90 (Lactobacillus spp.)	other results
CCC[C@@H]1C[C@@H](C(=O)N[C@@H]([C@H]2O[C@H](SC)[C@H](O)[C@@H](O)[C@H]2O)[C@H](C)Cl)N(C)C1 [Clindamycin]	≤ 0.06 µg/mL	< 0.06 µg/mL	0.06 to 0.25 µg/mL (≈ 0.141 to 0.588 µM)	≤ 0.06 µg/mL	< 0.06 µg/mL	≤ 0.06 µg/mL	0.25 µg/mL (≈ 0.588 µM)	4 µg/mL (≈ 9.41 µM)	0.06 to 4 µg/mL (≈ 0.141 to 9.41 µM)	≤ 0.06 µg/mL	< 0.06 µg/mL	≤ 0.06 µg/mL	–	–	side effects ([1]; compared with drugs currently used): serious side effects, particularly on the gastrointestinal tract with serious forms of diarrhea and pseudo-membranous colitis that can even lead to the death of the patient
CC1(C)S[C@@H]2[C@H](NC(=O)[C@H](N)c3ccccc3)C(=O)N2[C@H]1C(=O)O [Ampicillin]	≤ 0.5 µg/mL	–	0.5 to 2 µg/mL (≈ 1.43 to 5.72 µM)	≤ 0.5 µg/mL	4 µg/mL (≈ 11.4 µM)	0.5 to 4 µg/mL (≈ 1.43 to 11.4 µM)	≤ 0.5 µg/mL	1 µg/mL (≈ 2.86 µM)	0.5 to 2 µg/mL (≈ 1.43 to 5.72 µM)	4 µg/mL (≈ 11.4 µM)	64 µg/mL (≈ 183 µM)	–	< 0.5 µg/mL	–	–
Cc1ncc([N+](=O)[O-])n1CCO [Metronidazole]	> 16 µg/mL	–	–	> 16 µg/mL	–	–	> 16 µg/mL	–	> 16 µg/mL	2 µg/mL (≈ 11.7 µM)	4 µg/mL (≈ 23.4 µM)	0.5 to 8 µg/mL (≈ 2.92 to 46.7 µM)	> 16 µg/mL	> 16 µg/mL	side effects ([1]; in vivo): serious side effects particularly on the blood and on the central nervous system; MIC90 (Mobiluncus spp.): > 16 µg/mL
CO[C@H]1/C=C/O[C@@]2(C)Oc3c(C)c(O)c4c(O)c(c5c(nc6cc(C)ccn65)c4c3C2=O)NC(=O)/C(C)=C\C=C\[C@H](C)[C@H](O)[C@@H](C)[C@@H](O)[C@@H](C)[C@H](OC(C)=O)[C@@H]1C [Rifaximin, 4-desoxy-4'-methyl-pyrido [1'2':1.2] imidazo [5.4-c] rifamycin SV]	0.5 µg/mL (≈ 0.636 µM)	1 µg/mL (≈ 1.27 µM)	0.25 to 1 µg/mL (≈ 0.318 to 1.27 µM)	≤ 0.03 µg/mL	< 0.03 µg/mL	≤ 0.03 µg/mL	0.12 µg/mL (≈ 0.153 µM)	–	0.3 to 1 µg/mL (≈ 0.382 to 1.27 µM)	0.12 µg/mL (≈ 0.153 µM)	0.25 µg/mL (≈ 0.318 µM)	0.03 to 0.5 µg/mL (≈ 0.0382 to 0.636 µM)	–	0.5 µg/mL (≈ 0.636 µM)	MIC90 (Neisseria gonorrhoeae): 16 µg/mL (≈ 20.4 µM); MIC50 (Neisseria gonorrhoeae; 60 strains): 0.25 µg/mL (≈ 0.318 µM); susceptibility (Chlamydia trachomatis): has shown susceptibility to rifaximin; MIC90 (Chlamydia trachomatis; Chlamydia trachomatis, 6 strains): < 20 µg/mL; MIC (Chlamydia trachomatis; Chlamydia trachomatis, 6 strains, read-out: MIC Range of Concentration Value): 10 to 20 µg/mL (≈ 12.7 to 25.4 µM); MIC (Chlamydia trachomatis; Chlamydia trachomatis, read-out: M.I.C.): > 20 µg/mL; MIC50 (Mycoplasma hominis; 20 strains): 64 µg/mL (≈ 81.4 µM); MIC90 (Mycoplasma hominis; 20 strains): ≥ 64 µg/mL; MIC (Mycoplasma hominis; 20 strains, read-out: MIC Range of Concentration Value): ≥ 64 µg/mL; MIC (Mycoplasma hominis; read-out: M.I.C.): ≥ 64 µg/mL; MIC90 (Haemophilus ducreyi): 0.5 µg/mL (≈ 0.636 µM); MIC50 (Haemophilus ducreyi; 25 strains): 0.25 µg/mL (≈ 0.318 µM); MIC (Haemophilus ducreyi; 25 strains, read-out: MIC Range of Concentration Value): 0.03 to 0.5 µg/mL (≈ 0.0382 to 0.636 µM); MIC (Ureaplasma urealyticum): ≥ 64 µg/mL; MIC50 (Ureaplasma urealyticum; 25 strains): 64 µg/mL (≈ 81.4 µM); MIC90 (Ureaplasma urealyticum; 25 strains): > 64 µg/mL
